Measurements: patent US12049483B2, “Selective and noncovalent inhibitors of oncogenic RAS mutants” (New York University, priority 2020, dated 2024)

Assays:
KRAS(G12C) [1] = target: T1, KRAS(G12C) (Homo sapiens, UniProt P01116, G12C); experiment: Competitive binding assay of 12VC1 against known interaction partners of RAS (yeast display); parameters: KRAS4B residues 1-174 containing G12C, G12V, G12D, G13D, Q61L, WT; His6 (N, cleaved yes); Avi-tag (N, cleaved yes); made in house; host or cells: E. coli BL21(DE3)
Protocol: After four rounds of phage display library selection using biotinylated KRAS(G12C) at concentrations of 100 nM, 100 nM, 50 nM and 50 nM, the genes encoding monobodies from the enriched phage pool were transferred to a yeast display vector, which was used to construct yeast-display libraries. The yeast display libraries were sorted using a Bio-Rad S3e fluorescence-activated cell sorter or a [sequence] II cell sorter (BD Biosciences). […] The expression of monobodies on the surface of yeast cells were detected using mouse anti-VS and anti-mouse IgG-FITC conjugate. Target binding was detected with neutravidin Dylight650. Yeast cells were analyzed using an iQue flow cytometer (Sartorius).

[2] = test system: endogenous KRAS from PATU8902 (KRAS(G12V)) and H358 (KRAS(G12C)); experiment: Pull-down assay with biotinylated 12VC1 from cell lysates; format: binding; conditions: PATU8902 and H358 lysates vs growth factor stimulated HEK293T (wild-type RAS)
Protocol: Pull-down assays. H358, PATU8902, and HEK293T cells were cultured in 10 cm plates (Corning, #430167). H358 and PATU8902 cells were treated with and without ARS1620 (SelleckChem, 58707) at a final concentration of 10 μM for 1.5 hours, and HEK293T cells were treated with EGF (PeproTech; AF-100-15) at a final concentration of 50 ng/mL for 4 minutes. Cells were lysed by incubating them on ice for 15 minutes in GTPase lysis buffer (25 mM Tris-Cl pH 7.2, 150 mM NaCl, 5 mM MgCl2, 1% NP-40 and 5% glycerol supplemented with protease tablet (Roche, 5892991001) and phosphatase inhibitors (1 mM sodium orthovanadate, 10 mM NAF, 54 mM β-glycerol phosphate)) immediately before analysis. After centrifugation for 15 minutes at 15,000 g, the supernatants were collected and incubated with SA agarose resins (Thermo Fisher Scientific) for 1 hour at 4° C. to remove non-specific binders to the resins. After the removal of resins via centrifugation, the pre-cleared lysates were then incubated with biotinylated monobodies bound to SA agarose resins for 3 hours at 4° C. while rotating. The agarose resins were then washed twice with the GTPase lysis buffer and boiled in 1×SDS buffer with 37.5 mM β-mercaptoethanol and processed for Western blotting using a pan-RAS antibody (Santa Cruz Biotechnology, C-4).

KRAS(G12D) = target: T2, KRAS(G12D) (Homo sapiens, UniProt P01116, G12D); experiment: Yeast display binding titration, KRAS(G12D); conditions: GTPγS and GDP bound states
T2 construct: KRAS4B residues 1-174 containing G12C, G12V, G12D, G13D, Q61L, WT; made in house; host or cells: E. coli BL21(DE3) with pBirA
Protocol: Nucleotide exchange of RAS. Purified RAS proteins used in binding experiment and crystallization were prepared by diluting stock protein (typically containing 20-250 μM RAS) 25 times with 20 mM Tris-Cl buffer pH 7.5 containing 5 mM EDTA, 0.1 mM DTT and 1 mM final concentration of a nucleotide (GDP or GTPγS). Samples were incubated at 30° C. for 30 minutes. MgCl2 was then added to the sample at a final concentration of 20 mM and the solution was further incubated on ice for at least 5 minutes prior to use.
Monobody development. General procedures for the development of monobodies against purified protein targets have been described previously. After four rounds of phage display library selection using biotinylated KRAS(G12C) at concentrations of 100 nM, 100 nM, 50 nM and 50 nM, the genes encoding monobodies from the enriched phage pool were transferred to a yeast display vector, which was used to construct yeast-display libraries. The yeast display libraries were sorted using a Bio-Rad S3e fluorescence-activated cell sorter or a […] II cell sorter (BD Biosciences). […] Single clones were then screened for selective binding to RAS mutants. The expression of monobodies on the surface of yeast cells were detected using mouse anti-VS and anti-mouse IgG-FITC conjugate. Target binding was detected with neutravidin Dylight650. Yeast cells were analyzed using an iQue flow cytometer (Sartorius). […]

KRAS(G12C) [3] = target: T1, KRAS(G12C); experiment: BLI binding to KRAS(G12C); parameters: KRAS4B residues 1-174 containing G12C, G12V, G12D, G13D, Q61L, WT; His6 (N, cleaved yes); Avi-tag (N, cleaved yes); made in house; host or cells: E. coli BL21(DE3); conditions: nucleotide state GTPγS
From the text: Protein expression and purification. All proteins used for monobody development and binding assays, including RAS constructs (KRAS4B residues 1-174 containing G12C, G12V, G12D, G13D, Q61L, WT, NRAS(WT), and HRAS(WT)), Monobodies, and RAF-1 RBD (residues 51-131) were produced with an N-terminal tag containing His6, Avi-tag for biotinylation and a TEV protease recognition site using the pHBT vector. The proteins were produced in E. coli BL21(DE3). To produce biotinylated proteins, E. coli BL21(DE3) with the pBirA plasmid was used as the host and grown in the presence of 50 μM of biotin. Expressed proteins were purified using Ni-Sepharose columns (GE Healthcare) via gravitational flow, followed by dialysis in Tris buffered saline (TBS, 50 mM Tris-Cl pH7.5 containing 150 mM NaCl) for non-RAS proteins. TBS containing 20 mM MgCl2 and 0.5 mM DTT was used for RAS proteins. Samples were further purified using a Superdex 75 size exclusion column on AKTA Pure systems (GE Healthcare). HRAS(WT) and HRAS(G12C) (residues 1-166) used for crystallization was produced as a fusion protein with His6 and yeast SUMO at the N terminus using an in-house vector described previously. […]
Biolayer interferometry (BLI) analysis. […] BLI signals were analyzed using Octet Data Analysis software (Molecular Devices).

- competition with RAF1-RBD for binding to RAS (KRAS(G12C) [1]): competed
- binding (KRAS(G12D)): no binding
- koff (KRAS(G12C) [3]): 0.0027 s⁻¹
Sequence: VSSVPTKLEVVAATPTSLLISWDAPAVTVFFYVITYGETGHGVGAFQAFKVPGSKSTATISGLKPGVDYTITVYARGYSKQGPYKPSPISINYRT [12VC1]
- capture of endogenous KRAS in pull-down [2]: selectively captured endogenous KRAS
